Reference: PubChem BioAssay (NCI)
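96-well plates; 48 h exposure; 5 concentrations. Endpoints by linear interpolation between flanking doses. Not reached: highest tested concentration assigned. The concentration for 50% growth inhibition is given as GI50. TGI denotes the concentration required for complete inhibition of growth.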

What was measured:
Experiment in all cases: inhibition of tumour cell growth, NCI panel, 48 h
A498 renal = test system: A498 renal
OVCAR-8 ovarian = test system: OVCAR-8 ovarian
CCRF-CEM leukemia = test system: CCRF-CEM leukemia
U251 CNS = test system: U251 CNS
UACC-62 melanoma = test system: UACC-62 melanoma
786-0 renal = test system: 786-0 renal
HCC-2998 colon = test system: HCC-2998 colon
MOLT-4 leukemia = test system: MOLT-4 leukemia
A549 NSCLC = test system: A549 NSCLC
SN12C renal = test system: SN12C renal
HOP-62 NSCLC = test system: HOP-62 NSCLC
NCI-H522 lung = test system: NCI-H522 lung
KM12 colon = test system: KM12 colon
SK-MEL-2 melanoma = test system: SK-MEL-2 melanoma
IGROV1 ovarian = test system: IGROV1 ovarian
SW-620 colon = test system: SW-620 colon
MDA-MB-435 = test system: MDA-MB-435
PC-3 prostate = test system: PC-3 prostate
SF-539 CNS = test system: SF-539 CNS
NCI-H226 lung = test system: NCI-H226 lung
SNB-19 CNS = test system: SNB-19 CNS
SR leukemia = test system: SR leukemia
MCF7 breast = test system: MCF7 breast
COLO 205 colon = test system: COLO 205 colon
NCI-H460 lung = test system: NCI-H460 lung
M14 melanoma = test system: M14 melanoma
MDA-MB-231 breast = test system: MDA-MB-231 breast
HOP-92 NSCLC = test system: HOP-92 NSCLC
SK-MEL-5 melanoma = test system: SK-MEL-5 melanoma
HCT-15 colon = test system: HCT-15 colon
OVCAR-5 ovarian = test system: OVCAR-5 ovarian
HT29 colon = test system: HT29 colon
ACHN renal = test system: ACHN renal
SK-OV-3 ovarian = test system: SK-OV-3 ovarian
UACC-257 melanoma = test system: UACC-257 melanoma
DU-145 prostate = test system: DU-145 prostate
EKVX NSCLC = test system: EKVX NSCLC
HL-60(TB) leukemia = test system: HL-60(TB) leukemia
RXF 393 renal = test system: RXF 393 renal
K-562 leukemia = test system: K-562 leukemia
OVCAR-4 ovarian = test system: OVCAR-4 ovarian
NCI-H23 lung = test system: NCI-H23 lung
SF-295 CNS = test system: SF-295 CNS
LOX IMVI melanoma = test system: LOX IMVI melanoma
BT-549 breast = test system: BT-549 breast
RPMI-8226 leukemia = test system: RPMI-8226 leukemia
HCT-116 colon = test system: HCT-116 colon
SK-MEL-28 melanoma = test system: SK-MEL-28 melanoma
HS 578T breast = test system: HS 578T breast
UO-31 renal = test system: UO-31 renal
CAKI-1 renal = test system: CAKI-1 renal
TK-10 renal = test system: TK-10 renal
T-47D breast = test system: T-47D breast
MALME-3M melanoma = test system: MALME-3M melanoma
SF-268 CNS = test system: SF-268 CNS
OVCAR-3 ovarian = test system: OVCAR-3 ovarian

## COc1cc(-n2cncc2-c2ccc3ccccc3c2)cc(OC)c1OC
A498 renal
  GI50: < 10 nM
  TGI: 1410 nM
OVCAR-8 ovarian
  GI50: 54.6 nM
  TGI: > 100000 nM
CCRF-CEM leukemia
  GI50: 34.4 nM
  TGI: > 100000 nM
U251 CNS
  GI50: 23 nM
  TGI: 16700 nM
UACC-62 melanoma
  TGI: > 54500 nM
786-0 renal
  GI50: 49.6 nM
  TGI: 18500 nM
HCC-2998 colon
  GI50: < 11.6 nM
  TGI: 29.7 nM
MOLT-4 leukemia
  GI50: 53.8 nM
  TGI: > 66900 nM
A549 NSCLC
  GI50: 26.9 nM
  TGI: > 100000 nM
SN12C renal
  GI50: 1050 nM
  TGI: > 100000 nM
HOP-62 NSCLC
  GI50: 39.1 nM
  TGI: 25100 nM
NCI-H522 lung
  GI50: < 10 nM
KM12 colon
  GI50: < 10 nM
  TGI: > 100000 nM
SK-MEL-2 melanoma
  GI50: 30.9 nM
  TGI: 51800 nM
IGROV1 ovarian
  GI50: 87.2 nM
  TGI: > 38000 nM
SW-620 colon
  GI50: < 15.9 nM
  TGI: > 100000 nM
MDA-MB-435
  GI50: < 10 nM
  TGI: > 100000 nM
PC-3 prostate
  GI50: 15.8 nM
  TGI: > 100000 nM
SF-539 CNS
  GI50: 18.4 nM
  TGI: 73400 nM
NCI-H226 lung
  GI50: 2030 nM
  TGI: > 62000 nM
SNB-19 CNS
  GI50: 23.4 nM
  TGI: > 100000 nM
SR leukemia
  GI50: < 10 nM
  TGI: 10400 nM
MCF7 breast
  GI50: < 10 nM
  TGI: > 100000 nM
COLO 205 colon
  GI50: < 10 nM
  TGI: 391 nM
NCI-H460 lung
  GI50: < 17.9 nM
  TGI: > 100000 nM
M14 melanoma
  GI50: 17.1 nM
  TGI: 5620 nM
MDA-MB-231 breast
  GI50: 59.5 nM
  TGI: > 57600 nM
HOP-92 NSCLC
  GI50: 957 nM
  TGI: > 100000 nM
SK-MEL-5 melanoma
  GI50: < 10 nM
HCT-15 colon
  GI50: < 16.9 nM
  TGI: > 53200 nM
OVCAR-5 ovarian
  GI50: 48.4 nM
  TGI: 53400 nM
HT29 colon
  GI50: < 14.4 nM
  TGI: > 70600 nM
ACHN renal
  TGI: > 57200 nM
SK-OV-3 ovarian
  GI50: 51.8 nM
  TGI: > 69400 nM
UACC-257 melanoma
  GI50: > 87000 nM
  TGI: > 100000 nM
DU-145 prostate
  GI50: 32.4 nM
  TGI: > 100000 nM
EKVX NSCLC
  GI50: 65.7 nM
  TGI: > 100000 nM
HL-60(TB) leukemia
  GI50: < 10 nM
  TGI: 1540 nM
RXF 393 renal
  GI50: 19.9 nM
  TGI: 28900 nM
K-562 leukemia
  GI50: < 10 nM
  TGI: > 83400 nM
OVCAR-4 ovarian
  TGI: > 100000 nM
NCI-H23 lung
  GI50: 25.5 nM
  TGI: 5910 nM
SF-295 CNS
  GI50: < 10 nM
  TGI: > 100000 nM
LOX IMVI melanoma
  GI50: 87.2 nM
  TGI: > 41800 nM
BT-549 breast
  GI50: 62.1 nM
  TGI: > 100000 nM
RPMI-8226 leukemia
  GI50: 54.3 nM
  TGI: > 100000 nM
HCT-116 colon
  GI50: < 18.1 nM
  TGI: > 34600 nM
SK-MEL-28 melanoma
  TGI: > 100000 nM
HS 578T breast
  GI50: < 12.7 nM
  TGI: > 100000 nM
UO-31 renal
  GI50: 401 nM
  TGI: > 100000 nM
CAKI-1 renal
  GI50: 37 nM
  TGI: > 100000 nM
TK-10 renal
  GI50: 33800 nM
  TGI: > 100000 nM
T-47D breast
  GI50: > 100000 nM
  TGI: > 100000 nM
MALME-3M melanoma
  GI50: > 100000 nM
  TGI: > 100000 nM
SF-268 CNS
  GI50: 26 nM
  TGI: > 59000 nM
OVCAR-3 ovarian
  GI50: < 17.9 nM
  TGI: > 100000 nM
